In ChEMBL document CHEMBL1201862, “PubChem BioAssay data set” (2004):
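Results reflect a 48-hour exposure of cells in 96-well plates to compound at five concentrations. The concentration for 50% growth inhibition is given as GI50.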 Active and inactive are the calls of the source. Rule as the data show it: active = GI50 up to about 1.1 µM and inactive = higher.

Columns and labels:
Assay in all cases: growth of human tumour cells (NCI), 48 h
HCT-116 = test system: HCT-116
TK-10 = test system: TK-10
RXF 393 = test system: RXF 393
SR = test system: SR
NCI-H522 = test system: NCI-H522
SF-268 = test system: SF-268
A549 = test system: A549
KM12 = test system: KM12
HL-60 = test system: HL-60
Malme-3M = test system: Malme-3M
HOP-62 = test system: HOP-62
EKVX = test system: EKVX
UO-31 = test system: UO-31
NCI-H226 = test system: NCI-H226
SN12C = test system: SN12C
SNB-19 = test system: SNB-19
OVCAR-3 = test system: OVCAR-3
CCRF-CEM = test system: CCRF-CEM

Measured: GI50

COC(=O)/C=C/C1C2C3(CCC(C)C12C)OCCS3 (centres undefined)
inactive: HCT-116 > 100 µM | TK-10 > 100 µM | RXF 393 > 100 µM | SR 43.1 µM | NCI-H522 > 100 µM | SF-268 > 100 µM | A549 > 100 µM | KM12 > 100 µM | HL-60 > 100 µM | Malme-3M > 100 µM | HOP-62 > 100 µM | EKVX > 100 µM | UO-31 > 100 µM | NCI-H226 > 100 µM | SN12C > 100 µM | SNB-19 > 100 µM | OVCAR-3 > 100 µM | CCRF-CEM 34.3 µM

COc1ccc(OC)c2[s+]snc12
inactive: HCT-116 57.7 µM | TK-10 > 100 µM | RXF 393 72.4 µM | SR 64.9 µM | NCI-H522 47.8 µM | SF-268 52.6 µM | A549 40.1 µM | KM12 38.6 µM | HL-60 33.3 µM | Malme-3M > 100 µM | HOP-62 > 100 µM | EKVX > 100 µM | UO-31 29 µM | NCI-H226 > 100 µM | SN12C > 100 µM | SNB-19 65.8 µM | OVCAR-3 34.4 µM | CCRF-CEM 36.1 µM

COc1ccc(OCC(=O)O)c2c1CCCC2=O
inactive: HCT-116 > 100 µM | TK-10 > 100 µM | RXF 393 > 100 µM | SR > 100 µM | NCI-H522 > 100 µM | SF-268 > 100 µM | A549 > 100 µM | KM12 > 100 µM | HL-60 > 100 µM | Malme-3M > 100 µM | HOP-62 > 100 µM | EKVX > 100 µM | UO-31 > 100 µM | NCI-H226 64.6 µM | SN12C > 100 µM | SNB-19 > 100 µM | OVCAR-3 > 100 µM | CCRF-CEM > 100 µM

COc1ccc2c(c1)CCc1c-2nc2cc3c(cc2c1O)OCO3
inactive: HCT-116 > 100 µM | TK-10 > 100 µM | RXF 393 > 100 µM | SR > 100 µM | NCI-H522 > 100 µM | SF-268 > 100 µM | A549 > 100 µM | KM12 > 100 µM | HL-60 > 100 µM | Malme-3M > 100 µM | HOP-62 > 100 µM | EKVX > 100 µM | UO-31 > 100 µM | NCI-H226 > 100 µM | SN12C > 100 µM | SNB-19 > 100 µM | OVCAR-3 > 100 µM | CCRF-CEM > 100 µM

COc1ccc(N[S+]([O-])c2cccc(C)c2)cc1 (centres undefined)
inactive: HCT-116 32.7 µM | TK-10 > 100 µM | RXF 393 54.5 µM | SR 35.9 µM | NCI-H522 8.59 µM | SF-268 30.5 µM | A549 29.3 µM | KM12 17.5 µM | HL-60 25.7 µM | Malme-3M 75.5 µM | HOP-62 64 µM | EKVX 12.2 µM | UO-31 20.4 µM | NCI-H226 > 100 µM | SN12C > 100 µM | SNB-19 > 100 µM | OVCAR-3 > 100 µM | CCRF-CEM 48 µM

COC(=O)C12C3C4C5C3(C#N)C1C5(C(=O)OC)C42C(=O)N(C(C)C)C(C)C (centres undefined)
inactive: HCT-116 39.9 µM | TK-10 > 100 µM | RXF 393 > 100 µM | SR 13.9 µM | NCI-H522 > 33.4 µM | SF-268 > 100 µM | A549 > 100 µM | KM12 > 100 µM | HL-60 > 43.7 µM | Malme-3M > 100 µM | HOP-62 > 100 µM | EKVX > 100 µM | UO-31 > 100 µM | NCI-H226 > 100 µM | SN12C > 100 µM | SNB-19 > 100 µM | OVCAR-3 > 100 µM | CCRF-CEM > 46 µM

O=C(NC12CC3CC(CC(C3)C1)C2)C(=O)c1c[nH]c2ccc(Br)cc12
inactive: HCT-116 14.6 µM | TK-10 28.8 µM | RXF 393 2.43 µM | SR 10 µM | NCI-H522 56 µM | SF-268 9.59 µM | A549 14.4 µM | KM12 7.08 µM | HL-60 5.02 µM | Malme-3M 17.9 µM | HOP-62 7.06 µM | EKVX 73.1 µM | UO-31 26.2 µM | NCI-H226 20.2 µM | SN12C 18.5 µM | SNB-19 33.5 µM | OVCAR-3 11.2 µM | CCRF-CEM 3.86 µM

O=C(NC12CC3CCC1CC(C3)C2)[C@@H]1CCCN1C(=O)OCc1ccccc1 (some centres undefined)
inactive: HCT-116 58.9 µM | TK-10 85.5 µM | RXF 393 16.8 µM | SR 34.4 µM | NCI-H522 54.7 µM | SF-268 94.8 µM | A549 50.4 µM | KM12 48.4 µM | HL-60 25.8 µM | Malme-3M 37.5 µM | HOP-62 > 100 µM | EKVX 69.5 µM | UO-31 24 µM | NCI-H226 58.9 µM | SN12C 46.5 µM | SNB-19 50.9 µM | OVCAR-3 89.5 µM | CCRF-CEM 36.5 µM
